Peptide text beside a SMILES is read from it.

The experiment relates to Botrytis cinerea (B05.10). The experiment in a line: Resazurin antifungal assay of 23 alpha-factor peptides (dimers, hybrids) towards Botrytis (Example 15, Table 6). The format is cell-based. Conditions: resazurin assay, % inhibition of fungal growth, Botrytis cinerea B05.10; for Inhibition at 10 μM: peptide 10 μM; for Inhibition at 20 μM: peptide 20 μM; for Inhibition at 50 μM: peptide 50 μM. As to the method: The antifungal activity of […] alpha-factor peptide variants towards Botrytis was tested. Experimental design:
Peptides corresponding to SEQ ID NO: 261-264 and 401-420 were chemically synthesized using the solid-phase synthesis method and resuspended in water to a stock solution of 1 mM. The stock solution was aliquoted in cryovials and stored at −80° C.
The Botrytis cinerea culture (B05.10) isolate was acquired from the Centraalbureau voor Schimmelcultures, the Netherlands. The Botrytis fungus was propagated on 0.5% V8 agar plates (200 ml V8 Juice, 3 g CaCO3, 15 g agar, 800-ml millipore water) at 20° C., in a 12 h photoperiod for 21 days.
Fungal conidia were harvested by scraping a Botrytis plate flooded with 1 ml water with 0.1% Tween 80 solution. Conidia were then collected in a 50 ml falcon tube by passing the solution through a 40 micron filter. The solution was then centrifuged at 6000 rpm and the pellet was resuspended in 1 ml of 20% glycerol. The conidia concentration of the resulting solution was counted using a hemocytometer. The stock was diluted to […] using 20% glycerol and frozen in 100 μl aliquots in −80° C. until further use.
Peptides were tested for activity against Botrytis, using the resazurin assay. For this, fungal stock conidia was first diluted to 5000 conidia/well. 50 μl of the spore suspension was added to each well of the sterile 96-well clear bottom testing plate and mixed with 50 μl of peptide solutions to a final concentration of 100, 50, 20, 10, 5 and 2.5 μM. The plate was incubated for 24 h at 20° C. After 24 h, 10 μl of resazurin dye was added to the microtiter plate and incubated again for […]. Fluorescence was measured at 570/620 nm after 4 h of incubation with resazurin.
Growth inhibition was calculated by subtracting the fluorescence values of conidia only wells from sample wells and depicted as % inhibition of fungal growth. Four technical replicates were used for all treatments.

On to `CSCC[C@H](NC(=O)[C@@H]1CCCN1C(=O)[C@H](CCC(N)=O)NC(=O)CNC(=O)[C@H](Cc1c[nH]c2ccccc12)NC(=O)[C@H](CC(N)=O)NC(=O)[C@H](Cc1ccccc1)NC(=O)[C@H](CCC(N)=O)NC(=O)[C@H](CC(C)C)NC(=O)[C@H](CC(C)C)NC(=O)[C@H](Cc1c[nH]cn1)NC(=O)[C@@H](N)Cc1c[nH]c2ccccc12)C(=O)N[C@@H](Cc1ccc(O)cc1)C(=O)O` [compound 408] (H-WHLLQFNWGQPMY-OH; N-terminus and C-terminus assumed), for which the “Inhibition at 10 μM” value is on record as less than 90%, the “Inhibition at 20 μM” value is less than 90% and the “Inhibition at 50 μM” value was determined as 100%.
As to `CSCC[C@H](NC(=O)[C@H](CO)NC(=O)[C@H](CCC(N)=O)NC(=O)CNC(=O)[C@H](CCCNC(=N)N)NC(=O)[C@H](CCCCN)NC(=O)[C@H](CC(C)C)NC(=O)[C@@H](NC(=O)[C@H](CC(C)C)NC(=O)[C@@H](NC(=O)[C@@H](NC(=O)[C@@H](N)Cc1c[nH]c2ccccc12)[C@@H](C)O)C(C)C)[C@@H](C)O)C(=O)N[C@@H](Cc1ccc(O)cc1)C(=O)O` [compound 409] (H-WTVLTLKRGQSMY-OH; N-terminus and C-terminus assumed), the “Inhibition at 10 μM” value was 97.7%, the “Inhibition at 20 μM” value is reported as 100% and the “Inhibition at 50 μM” value came out at 100%. Also, the “Inhibition at 2.5 μM” value (peptide 2.5 μM) was less than 90%. Further, the “Inhibition at 5 μM” value (peptide 5 μM) is less than 90%.
On to `CSCC[C@H](NC(=O)[C@@H]1CCCN1C(=O)[C@H](CCC(N)=O)NC(=O)CNC(=O)[C@@H]1CCCN1C(=O)[C@H](CCCNC(=N)N)NC(=O)[C@H](Cc1ccccc1)NC(=O)[C@H](CCCNC(=N)N)NC(=O)[C@H](CC(C)C)NC(=O)[C@H](Cc1c[nH]c2ccccc12)NC(=O)[C@H](Cc1c[nH]cn1)NC(=O)[C@@H](N)CCCCN)C(=O)N[C@@H](Cc1ccc(O)cc1)C(=O)O` [compound 410] (H-KHWLRFRPGQPMY-OH; N-terminus and C-terminus assumed), for which the “Inhibition at 10 μM” value is listed as less than 90%, the “Inhibition at 20 μM” value amounted to 100% and the “Inhibition at 50 μM” value was determined as 100%.
For the compound `CSCC[C@H](NC(=O)[C@@H]1CCCN1C(=O)[C@H](CCC(N)=O)NC(=O)CNC(=O)[C@@H]1CCCN1C(=O)[C@H](Cc1c[nH]c2ccccc12)NC(=O)[C@H](Cc1ccccc1)NC(=O)[C@H](CCCNC(=N)N)NC(=O)[C@H](CC(C)C)NC(=O)[C@H](Cc1c[nH]c2ccccc12)NC(=O)[C@H](Cc1c[nH]cn1)NC(=O)[C@@H](N)CCCCN)C(=O)N[C@@H](Cc1ccc(O)cc1)C(=O)O` [compound 411] (H-KHWLRFWPGQPMY-OH; N-terminus and C-terminus assumed), the “Inhibition at 10 μM” value is given as less than 90%, the “Inhibition at 20 μM” value is recorded as less than 90% and the “Inhibition at 50 μM” value turned out to be 100%.
Regarding `CC[C@H](C)[C@H](NC(=O)[C@H](CCCNC(=N)N)NC(=O)[C@H](CC(C)C)NC(=O)[C@H](Cc1c[nH]c2ccccc12)NC(=O)[C@H](Cc1c[nH]cn1)NC(=O)[C@@H](N)CCCCN)C(=O)N[C@@H](Cc1c[nH]c2ccccc12)C(=O)N1CCC[C@H]1C(=O)NCC(=O)N[C@@H](CCC(N)=O)C(=O)N1CCC[C@H]1C(=O)N[C@@H](CCSC)C(=O)N[C@@H](Cc1ccc(O)cc1)C(=O)O` [compound 412] (H-KHWLRIWPGQPMY-OH; N-terminus and C-terminus assumed), the “Inhibition at 10 μM” value was less than 90%, the “Inhibition at 20 μM” value is reported as less than 90% and the “Inhibition at 50 μM” value amounted to 100%.
As for `CSCC[C@H](NC(=O)[C@H](Cc1ccc(O)cc1)NC(=O)[C@H](CCCNC(=N)N)NC(=O)[C@H](CCCNC(=N)N)NC(=O)[C@H](CCCNC(=N)N)NC(=O)[C@H](CCCNC(=N)N)NC(=O)[C@H](CCCNC(=N)N)NC(=O)[C@H](CCCNC(=N)N)NC(=O)[C@H](CCCNC(=N)N)NC(=O)[C@@H](N)CCCNC(=N)N)C(=O)N1CCC[C@H]1C(=O)N[C@@H](CCC(N)=O)C(=O)NCC(=O)N1CCC[C@H]1C(=O)N[C@@H](CCCCN)C(=O)N[C@@H](CC(C)C)C(=O)N[C@@H](CCC(N)=O)C(=O)N[C@@H](CC(C)C)C(=O)N[C@@H](Cc1c[nH]c2ccccc12)C(=O)N[C@@H](Cc1c[nH]cn1)C(=O)N[C@@H](Cc1c[nH]c2ccccc12)C(=O)O` [compound 420] (H-RRRRRRRRYMPQGPKLQLWHW-OH; N-terminus and C-terminus assumed), the “Inhibition at 50 μM” value is 100%. For the setting “peptide 100 μM”, the “Inhibition at 100 μM” value is on record as 100%.

For the origin of these results see US20250382332A1, “NOVEL ALPHA-FACTOR BASED PEPTIDES WITH ANTIFUNGAL ACTIVITY” (INVAIO SCIENCES, INC., priority 2024, published 2025).
